The structures appear in SMILES notation.

The target in assay [1] is T1, BnDGAT1(1–116)His6 (Brassica napus, UniProt Q9XGR5).
T1 construct: gene DGAT1; N-terminal hydrophilic cytosolic fragment, residues 1-116, followed by AALE linker and C-terminal His6 (tag kept); pET26b(+), E. coli BL21(DE3), Ni-NTA purified; calculated mass 13,278 Da; self-associates to dimer and tetramer; contains peptide 21-LDRLHRRKSSSDSSN-35
T1 sequence (Q9XGR5 1-116): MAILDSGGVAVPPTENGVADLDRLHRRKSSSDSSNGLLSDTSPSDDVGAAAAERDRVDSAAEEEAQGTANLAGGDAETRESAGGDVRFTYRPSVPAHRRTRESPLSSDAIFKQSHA
In words: Lipidex-1000 radioligand binding, Scatchard plot. The conditions noted are these: read-out: dissociation constant.

Assay [2] has as its target T1, BnDGAT1(1–116)His6. In words: Lipidex-1000 competition binding against [[…]-14C]oleoyl-CoA. The following applies: 8 μM free CoA displacing 19 μM [1-14C]oleoyl-CoA, 0.2 μM protein.

On to `CCCCCCCC/C=C\CCCCCCCCCCCC(=O)SCCNC(=O)CCNC(=O)[C@H](O)C(C)(C)COP(=O)(O)OP(=O)(O)OC[C@H]1O[C@@H](n2cnc3c(N)ncnc32)[C@H](O)[C@@H]1OP(=O)(O)O` [erucoyl-CoA], for which, at BnDGAT1(1–116)His6 [1], the Kd was approximately 2 µM.

In the case of `CC(C)(COP(=O)(O)OP(=O)(O)OC[C@H]1O[C@@H](n2cnc3c(N)ncnc32)[C@H](O)[C@@H]1OP(=O)(O)O)[C@@H](O)C(=O)NCCC(=O)NCCS` [CoA], the “Lipidex-1000 competition binding against [1-14C]oleoyl-CoA” value on BnDGAT1(1–116)His6 [2] is recorded as “free CoA or oleoyl-CoA was effective in displacing a similar quantity of radiolabeled ligand”.

Turning to `CCCCCCCC/C=C\CCCCCCCC(=O)SCCNC(=O)CCNC(=O)[C@H](O)C(C)(C)COP(=O)(O)OP(=O)(O)OC[C@H]1O[C@@H](n2cnc3c(N)ncnc32)[C@H](O)[C@@H]1OP(=O)(O)O` [oleoyl-CoA], the Kd at BnDGAT1(1–116)His6 [1] was approximately 17 µM.

The values above are taken from PMC1764880, “Acyl-CoA-binding and self-associating properties of a recombinant 13.3 kDa N-terminal fragment of diacylglycerol acyltransferase-1 from oilseed rape” (BMC Biochemistry, 2006).
